± gives the expanded uncertainty stated by the source.
Legend:
[1] = xn = mol fraction of the nth substance listed; settings: 101 kPa, Liquid, x2 = 0; for speed of sound: Linear variable-path acoustic interferometer; for mass density: Vibrating tube method
[2] = 101 kPa, Liquid; for speed of sound: Linear variable-path acoustic interferometer; for mass density: Vibrating tube method

Structure (SMILES)	speed of sound ([1]; 293.15 K)	mass density ([1]; 293.15 K)	speed of sound ([1]; 298.15 K)	mass density ([1]; 298.15 K)	speed of sound ([1]; 303.15 K)	mass density ([1]; 303.15 K)	speed of sound ([2]; 293.15 K)	mass density ([2]; 293.15 K)	speed of sound ([2]; 298.15 K)	mass density ([2]; 298.15 K)	speed of sound ([2]; 303.15 K)	mass density ([2]; 303.15 K)	speed of sound ([2]; 308.15 K)	mass density ([2]; 308.15 K)	speed of sound ([2]; 313.15 K)	mass density ([2]; 313.15 K)	speed of sound ([2]; 318.15 K)	mass density ([2]; 318.15 K)	speed of sound ([2]; 323.15 K)	mass density ([2]; 323.15 K)	other results
c1ccccc1 [benzene] + NC1CCCCC1	1322.7 ± 1.4 m/s	878.95 ± 0.08 kg/m3	1299.3 ± 1.4 m/s	873.61 ± 0.08 kg/m3	1276 ± 1.4 m/s	868.25 ± 0.08 kg/m3	–	–	–	–	–	–	–	–	–	–	–	–	–	–	speed of sound ([1]; 308.15 K): 1252.8 ± 1.4 m/s; mass density ([1]; 308.15 K): 862.88 ± 0.09 kg/m3; speed of sound ([1]; 313.15 K): 1229.8 ± 1.3 m/s; mass density ([1]; 313.15 K): 857.48 ± 0.09 kg/m3; speed of sound ([1]; 318.15 K): 1207 ± 1.3 m/s; mass density ([1]; 318.15 K): 852.08 ± 0.09 kg/m3; speed of sound ([1]; 323.15 K): 1184.5 ± 1.3 m/s; mass density ([1]; 323.15 K): 846.65 ± 0.09 kg/m3
c1ccccc1 [benzene]	–	–	–	–	–	–	1322.7 ± 1.4 m/s	878.95 ± 0.08 kg/m3	1299.3 ± 1.4 m/s	873.61 ± 0.08 kg/m3	1276 ± 1.4 m/s	868.25 ± 0.08 kg/m3	1252.8 ± 1.4 m/s	862.88 ± 0.09 kg/m3	1229.8 ± 1.3 m/s	857.48 ± 0.09 kg/m3	1207 ± 1.3 m/s	852.08 ± 0.09 kg/m3	1184.5 ± 1.3 m/s	846.65 ± 0.09 kg/m3	–
C1CCCCC1 [cyclohexane] + NC1CCCCC1	1278.6 ± 1.4 m/s	778.55 ± 0.12 kg/m3	1253.9 ± 1.4 m/s	773.84 ± 0.12 kg/m3	1229.3 ± 1.3 m/s	769.11 ± 0.12 kg/m3	–	–	–	–	–	–	–	–	–	–	–	–	–	–	speed of sound ([1]; 308.15 K): 1205.1 ± 1.3 m/s; mass density ([1]; 308.15 K): 764.35 ± 0.12 kg/m3; speed of sound ([1]; 313.15 K): 1181 ± 1.3 m/s; mass density ([1]; 313.15 K): 759.56 ± 0.13 kg/m3; speed of sound ([1]; 318.15 K): 1157.3 ± 1.3 m/s; mass density ([1]; 318.15 K): 754.74 ± 0.13 kg/m3; speed of sound ([1]; 323.15 K): 1133.7 ± 1.3 m/s; mass density ([1]; 323.15 K): 749.89 ± 0.13 kg/m3
C1CCCCC1 [cyclohexane]	–	–	–	–	–	–	1278.6 ± 1.4 m/s	778.55 ± 0.12 kg/m3	1253.9 ± 1.4 m/s	773.84 ± 0.12 kg/m3	1229.3 ± 1.3 m/s	769.11 ± 0.12 kg/m3	1205.1 ± 1.3 m/s	764.35 ± 0.12 kg/m3	1181 ± 1.3 m/s	759.56 ± 0.13 kg/m3	1157.3 ± 1.3 m/s	754.74 ± 0.13 kg/m3	1133.7 ± 1.3 m/s	749.89 ± 0.13 kg/m3	–
NC1CCCCC1 [cyclohexylamine]	–	–	–	–	–	–	1430.5 ± 1.6 m/s	867.39 ± 0.12 kg/m3	1408.8 ± 1.6 m/s	862.85 ± 0.12 kg/m3	1387.3 ± 1.5 m/s	858.31 ± 0.12 kg/m3	1366 ± 1.5 m/s	853.76 ± 0.12 kg/m3	1344.5 ± 1.5 m/s	849.23 ± 0.13 kg/m3	1323.1 ± 1.5 m/s	844.68 ± 0.13 kg/m3	1301.8 ± 1.5 m/s	840.14 ± 0.13 kg/m3	–
